# Laboratory results: patent US10233151B2, “Use of a novel 3-aryl-4-catechol-pyrrole-N-propanol compound and the derivatives thereof to treat cancer and diseases related to excessive angiogenesis” (Centre National de la Recherche Scientifique (CNRS), priority 2014, dated 2019)
# pIC50: −log10 of the molar value.
# Legend:
# [1] = EPR competition with BMPO, superoxide anion from xanthine/xanthine oxidase (aqueous phase); assay type: biochemical; details: xanthine oxidase 53 mU/mL + xanthine 250 μM in PBS pH 7.4, BMPO 50 mM, 10 minutes of incubation; read-out: IC50, inhibition of the formation of the BMPO superoxide adduct
# Procedure: The reactivity of compound (1) with superoxide anion in the aqueous phase was also studied by EPR at room temperature using the same competition method with the trapping reagent BMPO at 50 mM (FIG. 1B). In this case, superoxide anion is produced by enzymatic reaction of xanthine oxidase (XO, 53 mU/mL) with xanthine (X, 250 μM) in PBS (pH 7.4) containing 0.1 mM ethylenediaminetetraacetic acid (EDTA). The concentrations used for compound (1) are between 0.34 μM and 43.1 μM. These experiments were carried out with an ELEXSYS E500 EPR spectrometer (Bruker, Wissembourg, France), operating at a frequency of 9.82 GHz (X-band) with the following parameters: magnetic field: 349.0 ±6.6 mT; sweep time: 41.94 s; sampling: 1024 points; time constant: 40.96 ms; conversion time: 40.96 ms; modulation amplitude: 0.10 mT; modulation frequency: 100 kHz; gain: 60 dB; microwave power: 10 mW.
# [2] = tested on: human glioblastoma (U87) grafted onto the chick embryo chorioallantoic membrane; assay: In ovo tumor angiogenesis, glioblastoma grafted onto chick embryo chorioallantoic membrane (CAM); assay type: in vivo; details: 50 μM, 20 μL on tumor every 24 hours
# Procedure: The effect of compound (1) on tumor angiogenesis was evaluated using the in ovo model based on human tumor grafted onto chick embryo chorioallantoic membrane (CAM).
# This experimental approach makes it possible in only a few days to evaluate the tumor's progression and level of vascularization.
# (§1) At the tenth day of embryonic development, glioblastoma cells (U87, 5×10^6 in 20 μL) were deposited on the chorioallantoic membrane. Two days after the graft, compound (1) at a concentration of 50 μM in a volume of 20 μL was deposited on the surface of the tumor formed. This treatment was repeated every 24 hours for 5 days. The control group was treated with solvent. The test was carried out on 20 eggs bearing glioblastoma tumors for each group. Images of the tumors were taken at day 3 (24 hours after treatment), at day 5 (3 days after treatment) and at day 7 (5 days after treatment) of tumor development. […] In order to determine the antiangiogenic mechanism of compound (1), VEGF was assayed by the ELISA method (Invitrogen, Novex technology), from the culture supernatant of U87 and HCT-116 cells, under normoxic and hypoxic conditions.
# [3] = tested on: U87 cells; assay: VEGF secretion by ELISA, U87 culture supernatant; assay type: cell-based, human; details: U87, normoxic and hypoxic (2% O2) conditions, concentrations of 5 to 50, 24 hours
# Procedure: as §1
# [4] = tested on: HCT-116 cells; assay: VEGF secretion by ELISA, HCT-116 culture supernatant; assay type: cell-based; details: HCT-116, normoxic and hypoxic (2% O2) conditions, concentrations of 5 to 50, 24 hours
# Procedure: as §1
# [5] = tested on: chick embryo chorioallantoic membrane; assay: In ovo physiological angiogenesis on chick embryo chorioallantoic membrane; assay type: in vivo; details: 20 μL of 50 μM solution on CAM, seventh day of embryonic development
# Procedure: The effect of compound (1) on physiological angiogenesis was evaluated using the chick embryo chorioallantoic membrane (CAM) model which constitutes a richly vascularized tissue.
# At the seventh day of embryonic development, 20 μL of the 50 μM solution of compound (1) was deposited on the chorioallantoic membrane whereas the control membranes were treated with solvent.
# [6] = tested on: HCT-116 cells; assay: Cell growth test (CellTiter-Blue), HCT-116; assay type: cell-based; details: Homo sapiens, HCT-116, 72 h, HCT-116, normoxia, 72 hours; read-out: IC50 (50% decrease in cell growth)
# Procedure: (§2) The biological activity of compound (1), as well as that of its structural analogues, was studied in vitro on 7 different cancer cell lines: • HCT-116 (colorectal cancer) • U87 (glioblastoma) • K562 (myeloid leukemia) and K562 R • MDA-MB 231 (mammary adenocarcinoma) • MCF-7 (mammary adenocarcinoma) • A549 (pulmonary alveolar adenocarcinoma)
# The cells selected for this study were incubated at 37° C. in the presence of compound (1) added in the culture medium at various concentrations and at various times. The set of experiments carried out made it possible to determine the degree of cytotoxicity of the compound tested (IC50), its capacity to induce cell death by apoptosis, in close dependence on extracellular superoxide anion for its activation. […]
# [7] = tested on: K562 cells; assay: Cell growth test (CellTiter-Blue), K562; assay type: cell-based; details: Homo sapiens; K562, normoxia, 72 hours; read-out: IC50 (50% decrease in cell growth)
# Procedure: as §2
# (§3) The cells selected for this study were incubated at 37° C. in the presence of compound (1) added in the culture medium at various concentrations and at various times. The set of experiments carried out made it possible to determine the degree of cytotoxicity of the compound tested (IC50), its capacity to induce cell death by apoptosis, in close dependence on extracellular superoxide anion for its activation.
# (§4) The effect of compound (1) on the growth of HCT-116, U87, K562, K562R, MDA-MB 231, MCF-7 and A549 cells, cultured in normoxia, was evaluated using a cell growth test (CellTiter-Blue™ Cell Viability Assay, Promega).
# [8] = tested on: K562R cells; assay: Cell growth test (CellTiter-Blue), K562R; assay type: cell-based; details: Homo sapiens, K-562R, normoxia, 72 hours, read-out: IC50 (50% decrease in cell growth)
# Procedure: as §2, §3, §4
# [9] = tested on: MCF-7 cells; assay: Cell growth test (CellTiter-Blue), MCF-7; assay type: cell-based; details: Homo sapiens, MCF7; MCF-7, normoxia, 72 hours; read-out: IC50 (50% decrease in cell growth)
# Procedure: as §2, §3, §4
# [10] = tested on: caspases 3 and 7 in HL60 cells; assay: Caspase 3 and 7 activity (ApoONE test), HL60; assay type: cell-based; details: HL60, normoxia, 24 hours, 1 μM to 50 μM
# Procedure: In order to specify whether compound (1) leads to apoptotic cell death, the activity of caspases 3 and 7, marker enzymes of apoptosis, was measured using the ApoONE test (Promega) in HCT-116, U87 and HL60 cells treated in normoxia for 24 hours with compound (1) at concentrations varying from 1 μM to 50 μM.
# [11] = tested on: HCT-116 cells; assay: Cell survival after SOD pretreatment; assay type: cell-based; details: HCT-116, SOD1 50 U/ml 1 hour pretreatment
# Procedure: (§5) In order to determine the role of superoxide anion, produced by the cells, in the activation of compound (1), HCT-116 cells were pretreated for 1 hour with the enzyme superoxide dismutase (SOD1) at 50 U/ml, then treated with compound (1). The cells were analyzed to evaluate, firstly, cell survival in normoxia (72 hours of treatment) and in hypoxia (48 hours of treatment). Secondly, the formation of condensed chromatin in normoxia and the activity of caspases 3 and 7 in normoxia were evaluated.
# [12] = tested on: HCT-116 cells; assay: Condensed chromatin (Hoechst 33258) after SOD pretreatment; assay type: cell-based; details: HCT-116, SOD1 50 U/ml pretreatment, normoxia
# Procedure: as §5
structure (smiles),measurement,setting,value
OCCCn1cc(-c2ccccc2)c(-c2ccc(O)c(O)c2)c1 [compound (1)],pIC50,[1],5.49
same,tumor vascularization,"[2]; after 3 treatments (day 5), also day 7, vs control group",inhibition of tumor vascularization
same,growth of the treated tumor,[2]; day 7,significant inhibition of the growth of the treated tumor
same,VEGF secretion,[3],does not modify VEGF secretion
same,VEGF secretion,[4],does not modify VEGF secretion
same,effect on physiological angiogenesis,[5],absence of the effect
same,pIC50,[6],5.12
same,pIC50,[7],3.64
same,pIC50,[8],4.90
same,pIC50,[9],4.82
same,activity of caspases 3 and 7,[10],strongest activation
same,cytotoxic effect after SOD pretreatment,"[11]; 10 μM, normoxia, 72 hours",completely blocks the cytotoxic effect
same,cytotoxic effect after SOD pretreatment,"[11]; 25 μM, hypoxia, 48 hours",completely blocks the cytotoxic effect
same,increase in condensed chromatin after SOD pretreatment,[12],completely suppresses the increase in condensed chromatin
